This is an account of results in patent US7812017B2, “4-substituted indole and indoline compounds” (Biovitrum AB (publ.), priority 2006, dated 2010).

In assay [1] the target is T1, human 5-HT6 receptor (Homo sapiens, UniProt P50406). The assay is described as follows: biochemical.
Assay [2] addresses T1, human 5-HT6 receptor. The assay is described as follows: 5-HT6 receptor binding assay ([3H]-LSD, SPA, membranes of transfected HEK293 cells). The following applies: over three experiments.

Where a name gives a salt, the structure may show the parent alone.

T1 sequence (P50406 whole entry): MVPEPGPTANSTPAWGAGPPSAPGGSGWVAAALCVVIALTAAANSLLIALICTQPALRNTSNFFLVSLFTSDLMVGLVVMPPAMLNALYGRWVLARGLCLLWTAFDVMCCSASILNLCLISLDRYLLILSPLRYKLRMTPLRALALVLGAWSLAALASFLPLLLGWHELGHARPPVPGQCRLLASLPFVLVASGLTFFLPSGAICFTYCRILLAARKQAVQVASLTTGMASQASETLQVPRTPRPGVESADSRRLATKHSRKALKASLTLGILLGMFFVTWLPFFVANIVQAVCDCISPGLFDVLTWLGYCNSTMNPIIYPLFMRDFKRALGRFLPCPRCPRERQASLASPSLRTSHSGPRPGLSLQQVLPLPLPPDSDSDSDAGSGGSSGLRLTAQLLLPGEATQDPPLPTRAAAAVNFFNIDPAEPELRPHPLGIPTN

Usually Ki stands for the equilibrium dissociation constant of an inhibitor or competing ligand from its target. High values mean weaker binding, low ones tighter binding. `O=S(=O)(c1ccccc1)n1ccc2c(CN3CCNCC3)cccc21` [Example 1, 1-(Phenylsulfonyl)-4-(piperazin-1-ylmethyl)-1H-indole hydrochloride]: affinity in assay [1] was put at a Ki of 1.8 nM.
For the compound `CN(C)Cc1cccc2c1ccn2S(=O)(=O)c1ccccc1` [Example 47, N,N-Dimethyl-1-[1-(phenylsulfonyl)-1H-indol-4-yl]methanamine trifluoroacetate], affinity in assay [1] was put at a Ki of 3.3 nM.
As for `NCCc1c[nH]c2ccc(O)cc12` [Example 5-HT, 5-hydroxytryptamine], the Hill coefficient in assay [2] is listed as 0.94 (SD 0.09).
Take `O=S(=O)(c1ccccc1)n1ccc2c(CN3CCC3)cccc21` [Example 87, 4-Azetidin-1-ylmethyl)-1-(phenylsulfonyl)-1H-indole trifluoroacetate]: the Ki in assay [1] amounted to 0.9 nM.
